Experimental data: PubChem BioAssay (NCI)
“And” between values parts separate entries of the source, which are not always exact repeats. Equal entries are not always repeated.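 Assay format: 96-well plates, 48-hour exposure. Abbreviation: GI50, concentration required for 50% inhibition of growth. At the TGI there is no net growth.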

How the values were obtained:
Assay in all cases: NCI tumour cell line growth inhibition, 48 h
A498 renal = tested on: A498 renal
OVCAR-4 ovarian = tested on: OVCAR-4 ovarian
MDA-MB-231 breast = tested on: MDA-MB-231 breast
NCI-H23 lung = tested on: NCI-H23 lung
CCRF-CEM leukemia = tested on: CCRF-CEM leukemia
RPMI-8226 leukemia = tested on: RPMI-8226 leukemia
SN12C renal = tested on: SN12C renal
MCF7 breast = tested on: MCF7 breast
EKVX NSCLC = tested on: EKVX NSCLC
CAKI-1 renal = tested on: CAKI-1 renal

Row | SMILES | TGI (A498 renal) | GI50 (OVCAR-4 ovarian) | TGI (OVCAR-4 ovarian) | TGI (MDA-MB-231 breast) [µM] | GI50 (NCI-H23 lung) [µM] | TGI (NCI-H23 lung) | GI50 (CCRF-CEM leukemia) | TGI (CCRF-CEM leukemia) | GI50 (RPMI-8226 leukemia) [µM] | TGI (RPMI-8226 leukemia) | GI50 (SN12C renal) [µM] | TGI (SN12C renal) | GI50 (MCF7 breast) [µM] | TGI (MCF7 breast) | GI50 (EKVX NSCLC) [µM] | TGI (EKVX NSCLC) | GI50 (CAKI-1 renal) [µM] | TGI (CAKI-1 renal)
1 | CCN(CC)CC[n+]1ccc2c(C)c3[nH]c4ccccc4c3c(C)c2c1 | 25.2 µM and 28.8 µM and 17.9 µM | 0.192 µM and 0.799 µM and 0.0865 µM | 1.2 µM and 4.27 µM and 0.483 µM | 2.93 | 0.394 | 2.22 µM and 2.24 µM and 4.13 µM | 0.245 µM and 0.0957 µM | 4.33 µM and 2.1 µM and 2.27 µM | < 0.0471 | 4.87 µM and 0.536 µM and 2.95 µM | 0.195 | 1.9 µM and 0.925 µM and 2.68 µM | 0.323 | 7.36 µM and 5.5 µM and 2.47 µM | 1.48 | 8.97 µM and 16.4 µM and 4.14 µM | 8.97 | 10.3 µM and > 38.3 µM and 7.08 µM
2 | C=CC(C)(C)/C(=C\CO[Si](C(C)C)(C(C)C)C(C)C)C(=O)N(C)c1ccccc1I | 46 µM |  | 68.1 µM | 28.9 |  | 23.6 µM |  | 22.6 µM |  | 8.54 µM |  | 29.7 µM |  | 26.1 µM |  | 32.1 µM |  | 44 µM
3 | O=C(NC1=C(Cl)C(=O)c2ccccc2C1=O)C(=O)c1c(O)c2ccccc2oc1=O | 33.9 µM |  | 19.4 µM | 22.5 |  | 4.38 µM |  | > 30.7 µM |  | 30.3 µM |  | 14.3 µM |  | 8.39 µM |  | 22.4 µM |  | 22.6 µM
4 | Oc1ccc(Nc2nc(Cl)c3[nH]cnc3n2)cc1 | > 100 µM |  | > 100 µM | > 100 |  | > 100 µM |  | > 100 µM |  | > 100 µM |  | > 100 µM |  | > 100 µM |  | > 100 µM |  | > 100 µM
5 | O=[N+]([O-])/C(Cl)=C(\NCCO)C(Cl)=C(Cl)Cl | > 100 µM |  | > 100 µM | > 90.7 |  | > 100 µM |  | 52.1 µM |  | 40.5 µM |  | > 100 µM |  | > 100 µM |  | > 100 µM |  | > 100 µM
6 | O=C1CC(c2cccc([N+](=O)[O-])c2)C2(C(=O)NC(=S)NC2=O)C(c2cccc([N+](=O)[O-])c2)C1 (configuration not stated) | > 100 µM |  | > 100 µM | 62.4 |  | > 100 µM |  | 97.1 µM |  | > 100 µM |  | 52.3 µM |  | 50.9 µM |  | 74.1 µM |  | 64.3 µM
7 | CCOP(=O)(OCC)C(c1ccccc1)N(C(=O)NC(F)(F)F)c1ccc(C)cc1 (configuration not stated) | > 100 µM |  | > 100 µM | > 100 |  | > 100 µM |  | > 100 µM |  | > 100 µM |  | > 100 µM |  | > 100 µM |  | > 100 µM |  | > 100 µM
8 | CC(C)(C)OC(=O)NCC(c1c[nH]c2ccccc12)c1c[nH]c2ccccc12 | > 100 µM |  | 26.5 µM | 31.9 |  | 36.4 µM |  | 44.7 µM |  | 22.2 µM |  | 32.7 µM |  | > 100 µM |  | 26.2 µM |  | 29.1 µM
9 | CCOC(=O)c1cnc2n(c1=O)[C@H]1CCCC[C@@H]1N2 | > 100 µM |  | > 100 µM | > 100 |  | > 100 µM |  | > 100 µM |  | > 100 µM |  | > 100 µM |  | > 100 µM |  | > 100 µM |  | > 100 µM
10 | C=CCN1C(=O)C[C@H](Cc2ccccc2)NC(=O)C[C@H](Cc2ccccc2)N(CC=C)C(=O)C[C@H](Cc2ccccc2)NC(=O)C[C@@H]1Cc1ccccc1 | > 100 µM |  | 72 µM | > 100 |  | > 100 µM |  | > 100 µM |  | 9.66 µM |  | > 100 µM |  | > 100 µM |  | 9.25 µM |  | > 100 µM
11 | Cc1c2oc(=O)c(C#N)cc2c2ccccn12 | > 100 µM |  | > 100 µM | > 100 |  | > 100 µM |  | > 100 µM |  | > 100 µM |  |  |  | > 100 µM |  | > 100 µM |  | > 100 µM
